According to the NIST ThermoML archive (doi:10.1021/je049712l):
± gives the expanded uncertainty stated by the source.

Conditions: 101.33 kPa, Liquid, Vibrating tube method

CO [methanol]
mass density (273 K): 800 ± 24 kg/m3
mass density (298 K): 787 ± 24 kg/m3
mass density (303 K): 786 ± 24 kg/m3
mass density (313 K): 779 ± 24 kg/m3
mass density (323 K): 768 ± 24 kg/m3
